Measured values published in ChEMBL document CHEMBL5120927, “LEGO-Lipophosphonoxins: A Novel Approach in Designing Membrane Targeting Antimicrobials” (J Med Chem, 2022).
In brackets after ≈: the same amount, converted by molar mass.

How the values were obtained:
Staphylococcus aureus [1] = assay: Antibacterial activity against wild type Staphylococcus aureus 4502/A assessed as reduction in microbial growth incubated for 24 hrs by microdilution assay; assay type: functional
Staphylococcus aureus [2] = assay: Antibacterial activity against wild type Staphylococcus aureus 78/CF assessed as reduction in microbial growth incubated for 24 hrs by microdilution assay; assay type: functional
Staphylococcus aureus [3] = assay: Antibacterial activity against wild type Staphylococcus aureus 4515/A assessed as reduction in microbial growth incubated for 24 hrs by microdilution assay; assay type: functional
Staphylococcus aureus [4] = assay: Antibacterial activity against wild type Staphylococcus aureus 4904/C assessed as reduction in microbial growth incubated for 24 hrs by microdilution assay; assay type: functional
Staphylococcus aureus [5] = assay: Antibacterial activity against wild type Staphylococcus aureus 4504/A assessed as reduction in microbial growth incubated for 24 hrs by microdilution assay; assay type: functional
Staphylococcus aureus [6] = assay: Antibacterial activity against wild type methicillin resistant Staphylococcus aureus 4968/C assessed as reduction in microbial growth incubated for 24 hrs by microdilution assay; assay type: functional
Staphylococcus aureus [7] = assay: Antibacterial activity against wild type Staphylococcus aureus 4557/A assessed as reduction in microbial growth incubated for 24 hrs by microdilution assay; assay type: functional
Staphylococcus aureus [8] = assay: microbe, parasite or virus in culture; details: 4880/C, 24 h
Description: Antibacterial activity against wild type Staphylococcus aureus 4880/C assessed as reduction in microbial growth incubated for 24 hrs by microdilution assay

Staphylococcus aureus [9] = assay: Antibacterial activity against […] Staphylococcus aureus 4463/A assessed as reduction in microbial growth incubated for 24 hrs by microdilution assay; assay type: functional
Staphylococcus aureus [10] = assay: Antibacterial activity against wild type Staphylococcus aureus 77/CF assessed as reduction in microbial growth incubated for 24 hrs by microdilution assay; assay type: functional
Staphylococcus aureus [11] = assay: Antibacterial activity against wild type Staphylococcus aureus 4566/A assessed as reduction in microbial growth incubated for 24 hrs by microdilution assay; assay type: functional
Staphylococcus aureus [12] = assay: Antibacterial activity against wild type Staphylococcus aureus 4883/C assessed as reduction in microbial growth incubated for 24 hrs by microdilution assay; assay type: functional
Staphylococcus aureus [13] = assay: Antibacterial activity against wild type Staphylococcus aureus 4740/B assessed as reduction in microbial growth incubated for 24 hrs by microdilution assay; assay type: functional
Staphylococcus aureus [14] = assay: Antibacterial activity against […] Staphylococcus aureus 4460/A assessed as reduction in microbial growth incubated for 24 hrs by microdilution assay; assay type: functional
Staphylococcus aureus [15] = assay: Antibacterial activity against wild type Staphylococcus aureus 4717/B assessed as reduction in microbial growth incubated for 24 hrs by microdilution assay; assay type: functional
Staphylococcus aureus [16] = assay: Antibacterial activity against wild type methicillin resistant Staphylococcus aureus 4561/A assessed as reduction in microbial growth incubated for 24 hrs by microdilution assay; assay type: functional
Staphylococcus aureus [17] = assay: Antibacterial activity against wild type Staphylococcus aureus 5079/C assessed as reduction in microbial growth incubated for 24 hrs by microdilution assay; assay type: functional
Staphylococcus aureus [18] = assay: Antibacterial activity against wild type methicillin resistant Staphylococcus aureus 5017/C assessed as reduction in microbial growth incubated for 24 hrs by microdilution assay; assay type: functional
Staphylococcus aureus [19] = assay: microbe, parasite or virus in culture; details: 4862/C, 24 h
Description: Antibacterial activity against wild type Staphylococcus aureus 4862/C assessed as reduction in microbial growth incubated for 24 hrs by microdilution assay

Staphylococcus aureus [20] = assay: Antibacterial activity against wild type Staphylococcus aureus 4679/B assessed as reduction in microbial growth incubated for 24 hrs by microdilution assay; assay type: functional
Staphylococcus aureus [21] = assay: Antibacterial activity against […] Staphylococcus aureus 4461/A assessed as reduction in microbial growth incubated for 24 hrs by microdilution assay; assay type: functional
Staphylococcus aureus [22] = assay: Antibacterial activity against wild type Staphylococcus aureus 4738/B assessed as reduction in microbial growth incubated for 24 hrs by microdilution assay; assay type: functional
Staphylococcus aureus [23] = assay: Antibacterial activity against wild type Staphylococcus aureus 4788/B assessed as reduction in microbial growth incubated for 24 hrs by microdilution assay; assay type: functional
Staphylococcus aureus [24] = assay: Antibacterial activity against wild type Staphylococcus aureus 4482/A assessed as reduction in microbial growth incubated for 24 hrs by microdilution assay; assay type: functional
[25] = system: Staphylococcus epidermidis; assay: Antibacterial activity against Staphylococcus epidermidis CCM 7221 assessed as inhibition of bacterial growth incubated for 24 hrs by microdilution assay; assay type: functional
Pseudomonas aeruginosa [26] = assay: Antibacterial activity against multidrug-resistant Pseudomonas aeruginosa assessed as reduction in microbial growth incubated for 24 hrs by microdilution assay; assay type: functional
Escherichia coli [27] = assay: Antibacterial activity against multidrug-resistant Escherichia coli CE5556 expressing CTX-M-15 assessed as reduction in microbial growth incubated for 24 hrs by microdilution assay; assay type: functional
Staphylococcus aureus [28] = assay: Antibacterial activity against Staphylococcus aureus ATCC 29213 = CCM 4223 assessed as inhibition of bacterial growth incubated for 24 hrs by microdilution assay; assay type: functional
Pseudomonas aeruginosa [29] = assay: Antibacterial activity against Pseudomonas aeruginosa ATCC 27853 = CCM 3955 assessed as inhibition of bacterial growth incubated for 24 hrs by microdilution assay; assay type: functional
Staphylococcus aureus [30] = assay: microbe, parasite or virus in culture; details: 5017/C, 24 h
Description: Antibacterial activity against wild type Staphylococcus aureus 5017/C assessed as reduction in microbial growth incubated for 24 hrs by microdilution assay

[31] = Hemolytic activity in human RBC assessed as haemoglobin release measured after 3 hr; assay type: toxicity, cell-based, Erythrocyte; details: red blood cells (erythrocytes)
Staphylococcus aureus [32] = assay: Antibacterial activity against wild type Staphylococcus aureus 4968/C assessed as reduction in microbial growth incubated for 24 hrs by microdilution assay; assay type: functional
Staphylococcus aureus [33] = assay: Antibacterial activity against methicillin resistant Staphylococcus aureus 4591/A assessed as reduction in microbial growth incubated for 24 hrs by microdilution assay; assay type: functional
Enterococcus faecalis = assay: Antibacterial activity against Enterococcus faecalis ATCC 29212 = CCM 4224 assessed as inhibition of bacterial growth incubated for 24 hrs by microdilution assay; assay type: functional
Staphylococcus aureus [34] = assay: Antibacterial activity against Staphylococcus aureus ATCC 29213 = CCM 4223 assessed as inhibition of bacterial growth incubated for 24 hrs in presence of BSA by microdilution assay; assay type: functional
Enterococcus faecium = assay: Antibacterial activity against vancomycin resistant Enterococcus faecium 419/ANA assessed as reduction in microbial growth incubated for 24 hrs by microdilution assay; assay type: functional
Escherichia coli [35] = assay: Antibacterial activity against Escherichia coli ATCC 25922 = CCM 3954 assessed as inhibition of bacterial growth incubated for 24 hrs by microdilution assay; assay type: functional
Staphylococcus aureus [36] = assay: Antibacterial activity against wild type Staphylococcus aureus 4561/A assessed as reduction in microbial growth incubated for 24 hrs by microdilution assay; assay type: functional
[37] = Gradient chromatographic hydrophobicity index of the compound at pH 3.7 by HPLC analysis; assay type: ADME
Escherichia coli [38] = assay: Antibacterial activity against Escherichia coli ATCC 25922 = CCM 3954 assessed as inhibition of bacterial growth incubated for 24 hrs in presence of BSA by microdilution assay; assay type: functional

`Cc1onc(-c2ccccc2)c1C(=O)N[C@@H]1C(=O)N2[C@@H]1SC(C)(C)[C@@H]2C(=O)O` [OXACILLIN] showed an MIC (Staphylococcus aureus [1]) of 0.25 µg/mL, an MIC (Staphylococcus aureus [2]) of 0.25 µg/mL and an MIC (Staphylococcus aureus [3]) of 0.25 µg/mL. For the same compound, the MIC (Staphylococcus aureus [4]) was 0.25 µg/mL, the MIC (Staphylococcus aureus [5]) was 0.25 µg/mL and the MIC (Staphylococcus aureus [6]) was over 16 µg/mL. The MIC (Staphylococcus aureus [7]) was 0.25 µg/mL, the MIC (Staphylococcus aureus [8]) was 0.25 µg/mL (≈ 0.623 µM) and the MIC (Staphylococcus aureus [9]) was 0.25 µg/mL. For the same compound, the MIC (Staphylococcus aureus [10]) was 0.25 µg/mL, the MIC (Staphylococcus aureus [11]) was 0.25 µg/mL and the MIC (Staphylococcus aureus [12]) was 0.25 µg/mL. The MIC (Staphylococcus aureus [13]) was 0.25 µg/mL, the MIC (Staphylococcus aureus [14]) was 0.25 µg/mL and the MIC (Staphylococcus aureus [15]) was 0.25 µg/mL. It also gave an MIC (Staphylococcus aureus [16]) of over 8 µg/mL, an MIC (Staphylococcus aureus [17]) of 0.25 µg/mL and an MIC (Staphylococcus aureus [18]) of over 16 µg/mL. It also gave an MIC (Staphylococcus aureus [19]) of 0.25 µg/mL (≈ 0.623 µM), an MIC (Staphylococcus aureus [20]) of 0.25 µg/mL and an MIC (Staphylococcus aureus [21]) of 0.25 µg/mL. It also gave an MIC (Staphylococcus aureus [22]) of 0.25 µg/mL, an MIC (Staphylococcus aureus [23]) of 0.125 µg/mL and an MIC (Staphylococcus aureus [24]) of 0.25 µg/mL.
In the case of `CCCCCCOP(=O)(CCN(CCCNC(=N)N)CCCNC(=N)N)OCCCCCCCCOP(=O)(CCN(CCCNC(=N)N)CCCNC(=N)N)OCCCCCC.Cl.Cl.Cl.Cl.Cl.Cl` (stereo not given), the MIC [25] is reported as 0.5 µg/mL, the MIC (Staphylococcus aureus [1]) is reported as 0.5 µg/mL and the MIC (Staphylococcus aureus [2]) is reported as 0.5 µg/mL. It also gave an MIC (Staphylococcus aureus [3]) of 0.5 µg/mL, an MIC (Staphylococcus aureus [4]) of 0.5 µg/mL and an MIC (Staphylococcus aureus [5]) of 0.25 µg/mL. For the same compound, the MIC (Pseudomonas aeruginosa [26]) was 8 µg/mL, the MIC (Staphylococcus aureus [7]) was 0.5 µg/mL and the MIC (Escherichia coli [27]) was 5 µg/mL. It also gave an MIC (Staphylococcus aureus [8]) of 0.5 µg/mL, an MIC (Staphylococcus aureus [28]) of 5 µg/mL and an MIC (Pseudomonas aeruginosa [29]) of 8 µg/mL. The MIC (Staphylococcus aureus [9]) was 0.5 µg/mL, the MIC (Staphylococcus aureus [30]) was 0.5 µg/mL and the MIC (Staphylococcus aureus [10]) was 0.5 µg/mL. The HC50 at 3 h [31] was 139 µg/mL, the MIC (Staphylococcus aureus [32]) was 0.5 µg/mL and the MIC (Staphylococcus aureus [33]) was 5 µg/mL. It also gave an MIC (Staphylococcus aureus [11]) of 0.5 µg/mL, an MIC (Staphylococcus aureus [12]) of 0.5 µg/mL and an MIC (Staphylococcus aureus [13]) of 0.5 µg/mL. It also gave an MIC (Enterococcus faecalis) of 8 µg/mL, an MIC (Staphylococcus aureus [14]) of 0.5 µg/mL and an MIC (Staphylococcus aureus [15]) of 0.25 µg/mL. The MIC (Staphylococcus aureus [17]) was 0.5 µg/mL, the MIC (Staphylococcus aureus [34]) was 0.5 µg/mL and the MIC (Enterococcus faecium) was 16 µg/mL. The MIC (Escherichia coli [35]) was 16 µg/mL, the MIC (Staphylococcus aureus [19]) was 0.5 µg/mL and the MIC (Staphylococcus aureus [36]) was 0.5 µg/mL. The MIC (Staphylococcus aureus [20]) was 0.5 µg/mL, the MIC (Staphylococcus aureus [21]) was 0.5 µg/mL and the CHI [37] was 31.5. For the same compound, the MIC (Staphylococcus aureus [22]) was 0.5 µg/mL, the MIC (Staphylococcus aureus [23]) was 0.5 µg/mL and the MIC (Staphylococcus aureus [24]) was 0.5 µg/mL. For the same compound, the MIC (Escherichia coli [38]) was 2 µg/mL.
With `O=C(O)c1cn(C2CC2)c2cc(N3CCNCC3)c(F)cc2c1=O` [CIPROFLOXACIN] the MIC (Staphylococcus aureus [2]) was 0.25 µg/mL, the MIC (Staphylococcus aureus [4]) was 0.25 µg/mL and the MIC (Staphylococcus aureus [5]) was 0.25 µg/mL. The MIC (Staphylococcus aureus [6]) was over 8 µg/mL, the MIC (Staphylococcus aureus [7]) was 0.25 µg/mL and the MIC (Staphylococcus aureus [8]) was 0.25 µg/mL (≈ 0.754 µM). It also gave an MIC (Staphylococcus aureus [9]) of 0.25 µg/mL, an MIC (Staphylococcus aureus [10]) of 0.5 µg/mL and an MIC (Staphylococcus aureus [11]) of 0.25 µg/mL. It also gave an MIC (Staphylococcus aureus [12]) of 0.25 µg/mL, an MIC (Staphylococcus aureus [13]) of 0.5 µg/mL and an MIC (Staphylococcus aureus [15]) of 0.25 µg/mL. It also gave an MIC (Staphylococcus aureus [16]) of over 8 µg/mL, an MIC (Staphylococcus aureus [17]) of 0.25 µg/mL and an MIC (Staphylococcus aureus [18]) of over 8 µg/mL. It also gave an MIC (Staphylococcus aureus [19]) of 0.25 µg/mL (≈ 0.754 µM), an MIC (Staphylococcus aureus [20]) of 0.25 µg/mL and an MIC (Staphylococcus aureus [21]) of 0.25 µg/mL. For the same compound, the MIC (Staphylococcus aureus [22]) was 0.25 µg/mL and the MIC (Staphylococcus aureus [23]) was 0.063 µg/mL.
Work on `O=C(N[C@H](CO)[C@H](O)c1ccc([N+](=O)[O-])cc1)C(Cl)Cl` [CHLORAMPHENICOL] yielded an MIC (Staphylococcus aureus [1]) of 2 µg/mL, an MIC (Staphylococcus aureus [2]) of 1 µg/mL and an MIC (Staphylococcus aureus [3]) of 2 µg/mL. The MIC (Staphylococcus aureus [4]) was 2 µg/mL, the MIC (Staphylococcus aureus [5]) was 4 µg/mL and the MIC (Staphylococcus aureus [7]) was 2 µg/mL. The MIC (Staphylococcus aureus [8]) was 2 µg/mL (≈ 6.19 µM), the MIC (Staphylococcus aureus [9]) was 2 µg/mL and the MIC (Staphylococcus aureus [30]) was 4 µg/mL (≈ 12.4 µM). The MIC (Staphylococcus aureus [10]) was 1 µg/mL, the MIC (Staphylococcus aureus [32]) was 4 µg/mL and the MIC (Staphylococcus aureus [11]) was 4 µg/mL. For the same compound, the MIC (Staphylococcus aureus [12]) was 4 µg/mL, the MIC (Staphylococcus aureus [13]) was 1 µg/mL and the MIC (Staphylococcus aureus [14]) was 2 µg/mL. It also gave an MIC (Staphylococcus aureus [15]) of 4 µg/mL, an MIC (Staphylococcus aureus [17]) of 2 µg/mL and an MIC (Staphylococcus aureus [19]) of 4 µg/mL (≈ 12.4 µM). For the same compound, the MIC (Staphylococcus aureus [36]) was 4 µg/mL, the MIC (Staphylococcus aureus [20]) was 4 µg/mL and the MIC (Staphylococcus aureus [21]) was 2 µg/mL. It also gave an MIC (Staphylococcus aureus [22]) of 4 µg/mL, an MIC (Staphylococcus aureus [23]) of 2 µg/mL and an MIC (Staphylococcus aureus [24]) of 2 µg/mL.
